Experiments:
Assay in all cases: Kinase profiling panel
Format in all cases: biochemical
[1] = test system: ABL
Method: (§1) Supplementary Table 2. ZT-1a kinase profiling data6.
(§2) ZT-1a was tested at 10 and 1 µM against a panel of 140 recombinant kinases in an enzymatic
(§3) activity-based assay performed by the International Centre for Kinase Profiling in the MRC
(§4) Protein Phosphorylation and Ubiquitylation Unit. Values represent % residual kinase activity

[2] = test system: BRSK1
Method: as §1, §2, §3, §4

[3] = test system: BRSK2
Method: as §1, §2, §3, §4

[4] = test system: BTK
Method: as §1, §2, §3, §4

[5] = test system: CDK9-Cyclin T1
Method: as §1, §2, §3, §4

[6] = test system: CK1δ
Method: as §1, §2, §3, §4

[7] = test system: CLK2
Method: as §1, §2, §3, §4

[8] = test system: CSK
Method: as §1, §2, §3, §4

[9] = test system: DAPK1
Method: as §1, §2, §3, §4

[10] = test system: DDR2
Method: as §1, §2, §3, §4

[11] = test system: DYRK2
Method: as §1, §2, §3, §4

[12] = test system: EF2K
Method: as §1, §2, §3, §4

[13] = test system: EIF2AK3
Method: as §1, §2, §3, §4

[14] = test system: EPH-A2
Method: as §1, §2, §3, §4

[15] = test system: EPH-B3
Method: as §1, §2, §3, §4

[16] = test system: ERK2
Method: as §1, §2, §3, §4

[17] = test system: HER4
Method: as §1, §2, §3, §4

[18] = test system: IKKb
Method: as §1, §2, §3, §4

[19] = test system: JNK1
Method: as §1, §2, §3, §4

[20] = test system: JNK2
Method: as §1, §2, §3, §4

[21] = test system: Lck
Method: as §1, §2, §3, §4

[22] = test system: MARK4
Method: as §1, §2, §3, §4

[23] = test system: MEKK1
Method: as §1, §2, §3, §4

[24] = test system: MKK1
Method: as §1, §2, §3, §4

[25] = test system: MPSK1
Method: as §1, §2, §3, §4

[26] = test system: NEK6
Method: as §1, §2, §3, §4

[27] = test system: PAK6
Method: as §1, §2, §3, §4

[28] = test system: PDGFRA
Method: as §1, §2, §3, §4

[29] = test system: PHK
Method: as §1, §2, §3, §4

[30] = test system: PIM2
Method: as §1, §2, §3, §4

[31] = test system: PKA
Method: as §1, §2, §3, §4

[32] = test system: PKCa
Method: as §1, §2, §3, §4

[33] = test system: PKD1
Method: as §1, §2, §3, §4

[34] = test system: PRAK
Method: as §1, §2, §3, §4

[35] = test system: PRK2
Method: as §1, §2, §3, §4

[36] = test system: RIPK2
Method: as §1, §2, §3, §4

[37] = test system: RSK2
Method: as §1, §2, §3, §4

[38] = test system: S6K1
Method: as §1, §2, §3, §4

[39] = test system: SRPK1
Method: as §1, §2, §3, §4

[40] = test system: STK33
Method: as §1, §2, §3, §4

[41] = test system: TAO1
Method: as §1, §2, §3, §4

[42] = test system: TIE2
Method: as §1, §2, §3, §4

[43] = test system: TLK1
Method: as §1, §2, §3, §4

[44] = test system: ULK1
Method: as §1, §2, §3, §4

Cc1cc(C(C#N)c2ccc(Cl)cc2)c(Cl)cc1NC(=O)c1cc(Cl)ccc1O (stereo not shown) [ZT-1a, 5-chloro-N-(5-chloro-4-((4-chlorophenyl)(cyano)methyl)-2-methylphenyl)-2-hydroxybenzamide]
% residual kinase activity ([1]; 1 µM): 85±4%
% residual kinase activity ([1]; 10 µM): 68±16%
% residual kinase activity ([2]; 1 µM): 108±14%
% residual kinase activity ([2]; 10 µM): 88±22%
% residual kinase activity ([3]; 1 µM): 115±14%
% residual kinase activity ([3]; 10 µM): 104±0%
% residual kinase activity ([4]; 1 µM): 113±1%
% residual kinase activity ([4]; 10 µM): 73±2%
% residual kinase activity ([5]; 1 µM): 104±0%
% residual kinase activity ([5]; 10 µM): 108±1%
% residual kinase activity ([6]; 1 µM): 116±5%
% residual kinase activity ([6]; 10 µM): 114±9%
% residual kinase activity ([7]; 1 µM): 68±12%
% residual kinase activity ([7]; 10 µM): 33±45%
% residual kinase activity ([8]; 1 µM): 96±8%
% residual kinase activity ([8]; 10 µM): 106±29%
% residual kinase activity ([9]; 1 µM): 131±8%
% residual kinase activity ([9]; 10 µM): 159±11%
% residual kinase activity ([10]; 1 µM): 111±20%
% residual kinase activity ([10]; 10 µM): 99±8%
% residual kinase activity ([11]; 1 µM): 111±15%
% residual kinase activity ([11]; 10 µM): 97±10%
% residual kinase activity ([12]; 1 µM): 104±13%
% residual kinase activity ([12]; 10 µM): 56±2%
% residual kinase activity ([13]; 1 µM): 114±2%
% residual kinase activity ([13]; 10 µM): 100±3%
% residual kinase activity ([14]; 1 µM): 89±23%
% residual kinase activity ([14]; 10 µM): 78±11%
% residual kinase activity ([15]; 1 µM): 88±6%
% residual kinase activity ([15]; 10 µM): 84±6%
% residual kinase activity ([16]; 1 µM): 111±25%
% residual kinase activity ([16]; 10 µM): 75±3%
% residual kinase activity ([17]; 1 µM): 85±8%
% residual kinase activity ([17]; 10 µM): 84±1%
% residual kinase activity ([18]; 1 µM): 101±0%
% residual kinase activity ([18]; 10 µM): 78±3%
% residual kinase activity ([19]; 1 µM): 106±4%
% residual kinase activity ([19]; 10 µM): 110±5%
% residual kinase activity ([20]; 1 µM): 102±2%
% residual kinase activity ([20]; 10 µM): 147±51%
% residual kinase activity ([21]; 1 µM): 112±13%
% residual kinase activity ([21]; 10 µM): 127±14%
% residual kinase activity ([22]; 1 µM): 68±8%
% residual kinase activity ([22]; 10 µM): 59±9%
% residual kinase activity ([23]; 1 µM): 109±1%
% residual kinase activity ([23]; 10 µM): 93±16%
% residual kinase activity ([24]; 1 µM): 106±2%
% residual kinase activity ([24]; 10 µM): 114±17%
% residual kinase activity ([25]; 1 µM): 110±6%
% residual kinase activity ([25]; 10 µM): 105±2%
% residual kinase activity ([26]; 1 µM): 107±6%
% residual kinase activity ([26]; 10 µM): 108±1%
% residual kinase activity ([27]; 1 µM): 69±2%
% residual kinase activity ([27]; 10 µM): 75±4%
% residual kinase activity ([28]; 1 µM): 84±11%
% residual kinase activity ([28]; 10 µM): 80±7%
% residual kinase activity ([29]; 1 µM): 97±3%
% residual kinase activity ([29]; 10 µM): 107±2%
% residual kinase activity ([30]; 1 µM): 93±5%
% residual kinase activity ([30]; 10 µM): 93±3%
% residual kinase activity ([31]; 1 µM): 80±11%
% residual kinase activity ([31]; 10 µM): 50±2%
% residual kinase activity ([32]; 1 µM): 97±4%
% residual kinase activity ([32]; 10 µM): 83±2%
% residual kinase activity ([33]; 1 µM): 89±0%
% residual kinase activity ([33]; 10 µM): 79±10%
% residual kinase activity ([34]; 1 µM): 78±13%
% residual kinase activity ([34]; 10 µM): 41±7%
% residual kinase activity ([35]; 1 µM): 118±4%
% residual kinase activity ([35]; 10 µM): 120±7%
% residual kinase activity ([36]; 1 µM): 128±5%
% residual kinase activity ([36]; 10 µM): 120±3%
% residual kinase activity ([37]; 1 µM): 116±5%
% residual kinase activity ([37]; 10 µM): 101±3%
% residual kinase activity ([38]; 1 µM): 119±10%
% residual kinase activity ([38]; 10 µM): 81±2%
% residual kinase activity ([39]; 1 µM): 104±5%
% residual kinase activity ([39]; 10 µM): 73±20%
% residual kinase activity ([40]; 1 µM): 114±7%
% residual kinase activity ([40]; 10 µM): 100±5%
% residual kinase activity ([41]; 1 µM): 66±2%
% residual kinase activity ([41]; 10 µM): 104±2%
% residual kinase activity ([42]; 1 µM): 139±74%
% residual kinase activity ([42]; 10 µM): 73±11%
% residual kinase activity ([43]; 1 µM): 130±13%
% residual kinase activity ([43]; 10 µM): 124±4%
% residual kinase activity ([44]; 1 µM): 87±10%
% residual kinase activity ([44]; 10 µM): 89±13%

Source: paper PMC6946680, “Modulation of brain cation-Cl^− cotransport via the SPAK kinase inhibitor ZT-1a” (Nature Communications, 2020)
